For the data set the following is noted: Crystal; visual observation.

Each structure is given as a SMILES string. Numbers after ± are expanded uncertainties.

`O=P1(CO)Oc2ccccc2-c2ccccc21` (stereo unspecified) [6-(hydroxymethyl)dibenzo[c,e][1,2]oxaphosphinine 6-oxide]: the Normal melting temperature turned out to be 158.50 ± 1.5 °C.

Source of the values: the NIST ThermoML archive (doi:10.1021/je050488p).
